Test systems include MDA-MB-231 breast; HL-60(TB) leukemia; SF-539 CNS; PC-3 prostate; MCF7 breast; NCI-H23 lung; SN12C renal; OVCAR-5 ovarian.
Holding throughout (assay): NCI-60 cell line screen, 48 h

Molecules are shown by their SMILES.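 1) Cells in 96-well plates. 2) Compound, 48 h, 5 concentrations. 3) Linear interpolation between surrounding doses. 4) Unreached endpoint = highest concentration. The concentration for 50% growth inhibition is given as GI50. Definition used: TGI = concentration required for complete inhibition of growth.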

In the case of `BrP(NC1CCCCCC1)(c1ccccc1)(c1ccccc1)c1ccccc1`, the TGI amounted to 16 µM with MDA-MB-231 breast; 13.8 µM in the experiment with HL-60(TB) leukemia; 34.4 µM in the experiment on SF-539 CNS; 5.53 µM in the experiment on PC-3 prostate; 6.26 µM with MCF7 breast; 27.4 µM in the experiment on NCI-H23 lung. Moreover, the TGI in the experiment with SN12C renal was 16.1 µM; in the experiment with OVCAR-5 ovarian, 52.7 µM.

Regarding `Nc1c(C(=O)Nc2cccc3ccccc23)sc2nc3c(cc12)CCCC3`, the GI50 with MDA-MB-231 breast was 5.23 µM; with HL-60(TB) leukemia it was 0.233 µM; in the experiment on SF-539 CNS, 1.45 µM; in the experiment with PC-3 prostate, 1.8 µM; with MCF7 breast, 0.0577 µM; in the experiment on NCI-H23 lung, 3.43 µM. Besides, the GI50 was 6 µM in the experiment on SN12C renal and over 100 µM with OVCAR-5 ovarian. Further, the TGI in the experiment with MDA-MB-231 breast is over 100 µM; with HL-60(TB) leukemia it was 0.802 µM; in the experiment on SF-539 CNS it was over 100 µM; in the experiment on PC-3 prostate it was over 100 µM; in the experiment with MCF7 breast, over 100 µM; in the experiment on NCI-H23 lung, over 100 µM. The TGI with SN12C renal and in the experiment with OVCAR-5 ovarian was over 100 µM each time.

Consider `Cc1sc2nc(-c3ccccn3)c(/C=N/N=C(N)N)n2c1C`, for which the GI50 with MDA-MB-231 breast is 3.3 µM; with HL-60(TB) leukemia it was 4.48 µM; in the experiment on SF-539 CNS it was 28.6 µM; in the experiment with PC-3 prostate, 10.2 µM; with MCF7 breast, 6.54 µM; with NCI-H23 lung it was 6.37 µM. The GI50 in the experiment on SN12C renal is 14.4 µM; with OVCAR-5 ovarian it was 7.67 µM. Moreover, the TGI in the experiment with MDA-MB-231 breast was 6.94 µM; in the experiment with HL-60(TB) leukemia, over 100 µM; in the experiment on SF-539 CNS, 50.8 µM; in the experiment on PC-3 prostate, 28.6 µM; in the experiment on MCF7 breast it was 34 µM; in the experiment on NCI-H23 lung it was 15.3 µM. Besides, the TGI turned out to be 28.9 µM in the experiment on SN12C renal and 16.2 µM in the experiment with OVCAR-5 ovarian.

In the case of `O=C(Cc1ccc(/C=C/C(=O)c2ncc[nH]2)cc1)Nc1ccc(Br)cc1`, the GI50 is 3.97 µM with MDA-MB-231 breast; 2.78 µM in the experiment with HL-60(TB) leukemia; 1.47 µM in the experiment on SF-539 CNS; 2.51 µM with PC-3 prostate; 0.569 µM in the experiment with MCF7 breast; 2.2 µM in the experiment with NCI-H23 lung. Moreover, the GI50 in the experiment on SN12C renal is 2.59 µM; in the experiment with OVCAR-5 ovarian it was 2.24 µM. Moreover, the TGI with MDA-MB-231 breast was 13.4 µM; in the experiment on HL-60(TB) leukemia, 13.9 µM; in the experiment with SF-539 CNS, 3.56 µM; in the experiment with PC-3 prostate, 10.2 µM; with MCF7 breast it was over 16.7 µM; in the experiment on NCI-H23 lung, 8.5 µM. The TGI in the experiment with SN12C renal was 6.93 µM; in the experiment with OVCAR-5 ovarian, 5.83 µM.

For `N#Cc1cc2cc3c4c(c2oc1=O)CCCN4CCC3`, the TGI with MDA-MB-231 breast, in the experiment on HL-60(TB) leukemia, with SF-539 CNS, in the experiment with PC-3 prostate, with MCF7 breast and with NCI-H23 lung was over 100 µM throughout. Moreover, the TGI in the experiment on SN12C renal and with OVCAR-5 ovarian was over 100 µM in each case.

Turning to `COc1cc(Nc2ncc3c(n2)-c2ccc(Cl)cc2C(c2c(F)cccc2OC)=NC3)ccc1C(=O)O`, the GI50 was 3.07 µM with MDA-MB-231 breast; 16.5 µM in the experiment with HL-60(TB) leukemia; 0.503 µM in the experiment with SF-539 CNS; 7.87 µM in the experiment with PC-3 prostate; 0.0469 µM in the experiment on MCF7 breast; 10.9 µM in the experiment on NCI-H23 lung. The GI50 with SN12C renal was 4.04 µM; with OVCAR-5 ovarian it was 7.54 µM. The TGI in the experiment with MDA-MB-231 breast is over 100 µM; in the experiment on HL-60(TB) leukemia it was over 68 µM; with SF-539 CNS, 20 µM; in the experiment on PC-3 prostate, 70.4 µM; in the experiment on MCF7 breast it was over 100 µM; in the experiment on NCI-H23 lung, 65.1 µM. Also, the TGI in the experiment on SN12C renal was over 90.4 µM; in the experiment on OVCAR-5 ovarian it was over 77.7 µM.

`c1ccc(Cn2cc3c(c2)-c2oncc2CC3)cc1`: the GI50 is 1.36 µM with MDA-MB-231 breast; 0.274 µM with HL-60(TB) leukemia; 0.461 µM with SF-539 CNS; 1.99 µM in the experiment on PC-3 prostate; 0.349 µM in the experiment on MCF7 breast; 1.77 µM in the experiment on NCI-H23 lung. Moreover, the GI50 in the experiment with SN12C renal is 2.26 µM; in the experiment on OVCAR-5 ovarian it was 2.3 µM. The TGI in the experiment on MDA-MB-231 breast was 51.9 µM; in the experiment with HL-60(TB) leukemia, 0.939 µM; in the experiment on SF-539 CNS, 2.9 µM; in the experiment on PC-3 prostate, over 100 µM; with MCF7 breast, over 100 µM; with NCI-H23 lung, over 100 µM. In addition, the TGI in the experiment on SN12C renal was over 100 µM; in the experiment on OVCAR-5 ovarian, over 92.4 µM.

In the case of `COC(=O)c1[nH]nc(-c2ccccc2)c1N1CCCCC1`, the GI50 was 31.2 µM in the experiment with MDA-MB-231 breast; over 100 µM in the experiment with HL-60(TB) leukemia; 20.6 µM in the experiment on SF-539 CNS; 38.9 µM in the experiment with PC-3 prostate; 29.5 µM in the experiment with MCF7 breast; 26.3 µM in the experiment on NCI-H23 lung. Also, the results for the GI50 in the experiment on SN12C renal and in the experiment with OVCAR-5 ovarian were 15.5 µM and 51.7 µM, respectively. Also, the TGI in the experiment with MDA-MB-231 breast was 65.9 µM; in the experiment on HL-60(TB) leukemia it was over 100 µM; in the experiment with SF-539 CNS, 57.4 µM; with PC-3 prostate, over 100 µM; in the experiment with MCF7 breast, over 100 µM; in the experiment with NCI-H23 lung, 85.6 µM. In addition, the TGI in the experiment with SN12C renal is 41.5 µM; in the experiment on OVCAR-5 ovarian, over 100 µM.

As for `O=C(c1ccc(O)cc1)c1ccc(C(=O)c2ccc(O)cc2)cc1`, the GI50 was 46.9 µM in the experiment with MDA-MB-231 breast; over 100 µM in the experiment on HL-60(TB) leukemia; 80 µM in the experiment with SF-539 CNS; over 100 µM in the experiment with PC-3 prostate; 75.1 µM with MCF7 breast; 75.3 µM with NCI-H23 lung. The GI50 in the experiment on SN12C renal and with OVCAR-5 ovarian was over 100 µM in each case. Further, the TGI with MDA-MB-231 breast, in the experiment on HL-60(TB) leukemia, in the experiment on SF-539 CNS, with PC-3 prostate, in the experiment on MCF7 breast and in the experiment on NCI-H23 lung was over 100 µM in each case. The TGI in the experiment with SN12C renal and in the experiment with OVCAR-5 ovarian was over 100 µM in each case.

For the molecule `COc1cc2c(cc1OCCCCC(=O)Nc1ccc(-c3nc4ccccc4s3)cc1)N=C[C@@H]1CCCN1C2=O`, the GI50 in the experiment on MDA-MB-231 breast is 2.08 µM; in the experiment with HL-60(TB) leukemia, 1.77 µM; with SF-539 CNS, 1.59 µM; in the experiment on PC-3 prostate it was 2.04 µM; in the experiment on MCF7 breast, 0.732 µM; in the experiment on SN12C renal it was 2.81 µM. Further, the GI50 in the experiment on OVCAR-5 ovarian was 3.56 µM. Moreover, the TGI in the experiment on MDA-MB-231 breast amounted to 10.2 µM; in the experiment on HL-60(TB) leukemia, 6.31 µM; in the experiment with SF-539 CNS it was 3.38 µM; with PC-3 prostate, 5.93 µM; with MCF7 breast, 3.43 µM; in the experiment with SN12C renal, 9.72 µM. In addition, the TGI in the experiment on OVCAR-5 ovarian stood at 11.9 µM.

Values taken from PubChem BioAssay (NCI).
